This note sets out measurements from PMC12679585, “Design, synthesis, and characterization of novel 5-ethylsulfonyl-indazole-3-carboxamides as dual VEGFR-2 and EGFR inhibitors: apoptotic antiproliferative and immunomodulatory evaluations” (RSC Advances, 2025).

Where “and” joins values, the source holds several entries; their conditions need not be identical. Equal entries are not always repeated. A value given as a limit tells only on which side of the number the result lay.

One data set deals with HCT-116. Nature of the data set: Antiproliferative assay (MTT). It counts as cell-based. The settings on record: Homo sapiens, HCT-116 colorectal, mean of three experiments ± SD. From the text:
(§1) The MTT assay[53,54] was employed to evaluate the antiproliferative efficacy of new compounds 8a–l against two human cancer cell lines: MCF-7 (breast) and HCT-116 (colorectal carcinoma). Erlotinib was employed as the benchmark. Check Appendix A for additional experimental information.
(§2) The MTT assay[53,54] was used to evaluate the antiproliferative properties of novel compounds 8a–l against two human cancer cell lines: MCF-7 (breast cancer) and HCT-116 (colorectal carcinoma). Erlotinib was utilized as the reference. […] The provided values represent the means of three experiments ± standard deviation (SD). […]
(§3) of Ham's F-12 medium/ Dulbecco's modified Eagle's medium (DMEM) (1:1) supplemented with 10% foetal calf serum (GIBCO, UK), 2 mM glutamine, insulin (10 μg/mL), hydrocortisone (500 ng/mL) and epidermal growth factor (20 ng/mL). Trypsin ethylenediamine tetra acetic acid (EDTA) was used to passage the cells after every 2-3 days. 96-well flat-bottomed cell culture plates were used to seed the cells at a density of 10^4 cells mL-1. The medium was aspirated from all the wells of culture plates after 24 h followed by the addition of synthesized compounds (in 200 μL medium to yield a final concentration of 0.1% (v/v) dimethyl sulfoxide) into individual wells of the plates.
(§4) Four wells were designated to a single compound. The plates were allowed to incubate at 37°C for 96 h. Afterwards, the medium was aspirated and 3-[4,5-dimethylthiazol-2-yl]-2,5-diphenyltetrazolium bromide (MTT) (0.4 mg/mL) in medium was added to each well and subsequently incubated for 3 h. The medium was aspirated and 150 μL dimethyl sulfoxide (DMSO) was added to each well. The plates were vortexed followed by the measurement of absorbance at 540 nm on a microplate reader. […]
(§5) All cell lines […]
(§6) were obtained from ATCC (American Type Cell Culture). […]
(§7) μM), benzamidine HCl (16 μg/mL), NaCl (10 mM),leupeptin (10 μg/mL) and pepstatin (10 μg/mL) at 0°C for 20 min at pH 7.4, followed by centrifugation for 20 min. To eliminate the nonspecifically bound material, a Ni-NTA super flow packed column was (1 picture or pasted object on this page, not shown here)

In a further data set the test system is MCF-7. As to the kind of experiment: Antiproliferative assay (MTT). It counts as cell-based. The settings on record: Homo sapiens, MCF7, MCF-7 breast, mean of three experiments ± SD.
Excerpt: as §1, §2, §3, §4, §5, §6, §7

The next data set relates to p53. As to the kind of experiment: Apoptotic markers assay: p53 level in HCT-116 cells. It is filed as cell-based, human. From the text: (§8) Appendix A gives more details.
Apoptosis dysregulation is a hallmark of human cancer, resulting in uncontrolled proliferation, insufficient response to treatments, and the formation of drug-resistant cells.[60] As a result, current anticancer therapies are recognized for their ability to induce apoptosis in cancer cells via both extrinsic and intrinsic routes.[56]
The ability of p53 overexpression to trigger apoptosis may clarify the common inactivation of p53 enzymes by cancer cells during transformation.[63]

A further data set concerns Caspase-3. Nature of the data set: Caspase-3 activation assay in HCT-116 cells. It counts as cell-based, human. The settings on record: for Caspase-3 fold change: relative to control. The procedure:
as §8
Additionally, activating caspases is essential for both initiating and terminating the apoptotic process.[64] Caspase-3 is an essential enzyme that cleaves several proteins within cells, leading to apoptotic cell death.[65] […]
be read immediately after the Stop Solution is added or within one hour if the microwell strips are stored at 2 - 8°C in the dark. Read the absorbance of each microwell on a spectrophotometer using 450 nm as the primary wavelength.
4.2.5. Caspase-3 activation assay
Allow all reagents to reach room temperature before use. Gently mix all liquid reagents prior to use. Determine the number of 8-well strips needed for the assay. Insert these in the frame(s) for current use. Add 100 μl of the Standard Diluent Buffer to the zero standard wells. Well(s) reserved for chromogen blank should be left empty. Add 100 μl of standards and controls or diluted samples to the appropriate microtiter wells. The sample dilution chosen should be optimized for each experimental system. Tap gently on side of plate to mix. Cover wells with plate cover and incubate for 2 hours at room temperature. Thoroughly aspirate or decant solution from wells and discard the liquid, Wash wells 4 times. Pipette 100 μl of Caspase-3 (Active) Detection Antibody solution into each well except the chromogen blank(s). Tap gently on the side of the plate to mix. Cover plate with plate cover and incubate for 1 hour at room temperature.
Thoroughly aspirate or decant solution from wells and discard the liquid, Wash wells 4 times. Add 100 μl Anti-Rabbit IgG HRP Working Solution to each well except the chromogen blank(s). Prepare the working dilution as described in Preparing IgG HRP.
Cover wells with the plate cover and incubate for 30 minutes at room temperature.
Thoroughly aspirate or decant solution from wells and discard the liquid. Wash wells 4 times. Add 100 μl of Stabilized Chromogen to each well. The liquid in the wells will […]
begin to turn blue. […] The
Tap side of plate gently to mix.
Use a curve fitting software to generate […]
for the dilution in step 3.
4.2.6. Caspase-8/9 activation assay
This lysate was diluted in […]

A short description of data set [1]: In vitro cytotoxicity against normal human cells (MTT). The settings on record: human, WI-38 cells (normal human diploid cell line), normal human diploid cell line WI-38, MTT. It counts as cell-based. From the text: (§9) The results indicated a favorable safety margin for the evaluated compounds about normal cells, Table 5.
Another data set has as its system WI-38. Described as above. It is filed as cell-based. The note with it: for Selectivity index (SI), HCT-116: WI-38 versus HCT-116; for Selectivity index (SI), MCF-7: WI-38 versus MCF-7; for IC50: normal human diploid cell line WI-38, MTT.
Excerpt: as §9

Another data set has as its system IL-6. Nature of the data set: IL-6 level by qRT-PCR in HCT-116 cells. The note with it: Homo sapiens, HCT-116, read-out: IL-6 (% inhibition).
Another data set has as its system TNF-α. Nature of the data set: TNF-α level by qRT-PCR in HCT-116 cells. The settings on record: for TNF-α (% inhibition): HCT-116 cells, 24 hours, at IC50 against HCT-116 (8g 24 nM, 8h 23 nM), qRT-PCR. Background: Quantitative PCR measures a nucleic acid by following its amplification.
Setting [2] is: Homo sapiens, HCT-116, read-out: TNF-α (% inhibition), HCT-116 cells, 24 hours, at IC50 against HCT-116 (8g 24 nM, 8h 23 nM), qRT-PCR.

Description for IL-6: (§10) The reference molecule was dexamethasone, a drug that uniformly regulates the immune system.
TNF-α and IL6 a determination
(§11) determined using of q RT-PCR technique. By using q RTPCR (reference), the amount
(§12) treated HCT-116 cells was measured (at the IC50 concentrations). Total RNA was
(§13) accordance with the manufacturer's instructions (RNeasy mini kit, Qiagen, Germany).
(§14) Following RNA extraction, the Revert Aid First Strand cDNA Synthesis kit (Thermo
(§15) Scientific, USA) was used to create cDNA. The Rotor-Gene Q real-time PCR thermal
(§16) cycler was used to amplify target cDNA for apoptosis markers and GAPDH [as a
(§17) normalization (housekeeping) gene] using one step RT-PCR SYBR® Green kit Master
(§18) Mix (Bio-Rad Laboratories, USA). Two microliters of cDNA were combined with one
(§19) microliter of forward primer, one microliter of reverse primer, ten microliters of master
(§20) mixture, and twenty microliters of nuclease-free water to complete the reaction volume.
(§21) Every experiment was carried out three times.
(§22) Quantitative Real Time Reverse-Transcriptase PCR (qRT-PCR) primer sequences
TNF-α : R 5'- [sequence] -3'.
IL6 : R 5'- [sequence] -3
GAPDH : R 5’- [sequence]-3’
Description for TNF-α: as §10
TNF-α and IL6 a determination
as §11, §12, §13, §14, §15, §16, §17, §18, §19, §20, §21, §22
TNF-α : R 5'- [sequence] -3'.
IL6 : R 5'- [sequence] -3
GAPDH : R 5’- [sequence]-3’

In general, IC50 refers to the concentration at which inhibition is half-maximal. Lower therefore signals inhibition by little substance. A word on the inhibition: it is the relative decrease from the control value, in per cent. As for `CCS(=O)(=O)c1ccc2[nH]nc(C(=O)NNC(=O)NC34CC5CC(CC(C5)C3)C4)c2c1` [Compound 8g, 2-(5-(Ethylsulfonyl)-1H-indazole-3-carbonyl)-N-(adamantan-1-yl)hydrazine-1-carboxamide], the IC50 in the data set on HCT-116 is 24 ± 1 nM; with MCF-7, 28 ± 1 nM; in data set [1], above 120 nM; with WI-38, above 150 nM. The p53 level in the data set on p53 was 320 ± 2 pg/mL. Also, the “Caspase-3 Conc.” value in the data set on Caspase-3 is 490 ± 3 pg/mL and 490 ± 5 pg/mL. For the same compound, the Caspase-3 fold change with Caspase-3 was found to be 7.50 fold. Besides, in the data set on WI-38, the “Selectivity index (SI), HCT-116” value is listed as above 6.0. For the same compound, in the data set with WI-38, the “Selectivity index (SI), MCF-7” value was above 5.0. The inhibition at 0.024 µM in the data set with IL-6 is 86%; in the data set with TNF-α (setting [2]) it was around 80%. In addition, the “TNF-α (% inhibition)” value with TNF-α was 79%.
In the case of `CCS(=O)(=O)c1ccc2[nH]nc(C(=O)NNC(=O)NC3CCCCCC3)c2c1` [Compound 8h, 2-(5-(Ethylsulfonyl)-1H-indazole-3-carbonyl)-N-(cycloheptyl)hydrazine-1-carboxamide], the IC50 is 23 ± 1 nM in the data set on HCT-116, 25 ± 1 nM with MCF-7, above 120 nM in data set [1] and above 150 nM in the data set on WI-38. This compound displayed a p53 level in the data set with p53 of 355 ± 2 pg/mL. Moreover, the “Caspase-3 Conc.” value in the data set with Caspase-3 is 510 ± 4 pg/mL and 510 ± 5 pg/mL. The compound also yielded a Caspase-3 fold change with Caspase-3 of 7.90 fold. In addition, the “Selectivity index (SI), HCT-116” value with WI-38 is listed as above 6.5. Moreover, the “Selectivity index (SI), MCF-7” value in the data set on WI-38 is on record as above 6.0. The inhibition at 0.023 µM in the data set with IL-6 was 91%; in the data set on TNF-α (setting [2]) it was around 80%. The “TNF-α (% inhibition)” value in the data set with TNF-α worked out at 82%.
